Numbers after ± are expanded uncertainties.
Experiments:
[1] = refractive index (Na D-line) (dimensionless); xn = mol fraction of the nth substance listed; details: 294 K, 101 kPa, Liquid, Standard Abbe refractometry
[2] = xn = mol fraction of the nth substance listed; details: 294 K; for mass density / viscosity: 101 kPa, Liquid; for mass density: Vibrating tube method

CCO [ethanol] + OCC(O)CO
x1 = 1
Details	mass density [kg/m3]	refractive index	surface tension liquid-gas [mN/m]	viscosity [mPa·s]
[1]	–	1.3618 ± 0.0032	–	–
[2]	789.91 ± 0.22	–	22.2 ± 1.3	1.214

OCC(O)CO [glycerol] + CCO
Details	mass density, [2] [kg/m3]	refractive index, [1]	surface tension liquid-gas, [2] [mN/m]	viscosity, [2] [mPa·s]
x2 = 0	1261.51 ± 0.34	1.474 ± 0.0035	63.1 ± 3.2	1390 ± 350
x2 = 0.084	1233.48 ± 0.75	1.468 ± 0.0035	52 ± 2.7	800.5 ± 160
x2 = 0.1222	1220.3 ± 0.77	1.466 ± 0.0035	48.8 ± 2.6	627.9 ± 120
x2 = 0.1761	1201.19 ± 0.78	1.4619 ± 0.0035	43 ± 2.3	450 ± 73
x2 = 0.2037	1191.35 ± 0.79	1.4592 ± 0.0034	41.7 ± 2.2	385.1 ± 58
x2 = 0.2385	1178.37 ± 0.81	1.4562 ± 0.0034	39.4 ± 2.1	270 ± 34
x2 = 0.2789	1162.98 ± 0.84	1.4528 ± 0.0034	35.8 ± 2	220.5 ± 24
x2 = 0.351	1134.3 ± 0.86	1.447 ± 0.0034	33.2 ± 1.9	141.4 ± 11
x2 = 0.4138	1108.32 ± 0.9	1.4392 ± 0.0034	29.7 ± 1.7	80.71 ± 4.3
x2 = 0.4841	1077.53 ± 0.94	1.4326 ± 0.0034	28.5 ± 1.6	54.01 ± 2.7
x2 = 0.5497	1047.03 ± 0.98	1.4253 ± 0.0034	27.1 ± 1.6	31.52 ± 2.2
x2 = 0.6046	1020.27 ± 1	1.4179 ± 0.0034	25.1 ± 1.5	20.31 ± 2.1
x2 = 0.6526	995.96 ± 1.1	1.4131 ± 0.0033	24.3 ± 1.4	16.7 ± 2.1
x2 = 0.7451	946.41 ± 1.1	1.4016 ± 0.0033	23.5 ± 1.4	9.096 ± 2
x2 = 0.7984	916.05 ± 1.2	1.3934 ± 0.0033	23.5 ± 1.4	5.217 ± 2
x2 = 0.8336	895.63 ± 1.2	1.3885 ± 0.0033	23 ± 1.4	4.1 ± 2
x2 = 0.8777	868.79 ± 1.2	1.3815 ± 0.0033	22.5 ± 1.4	3.037
x2 = 0.9353	832.89 ± 1.3	1.3727 ± 0.0032	22.4 ± 1.4	1.898
x2 = 0.9596	816.85 ± 1.4	1.3681 ± 0.0032	22.3 ± 1.3	1.49
